Experimental data reported in ChEMBL document CHEMBL4152195, “Lipid reducing activity and toxicity profiles of a library of polyphenol derivatives” (Eur J Med Chem, 2018).
The source made the active and inactive calls. The calls are words filed in the database; no cut-off is given here.

Key:
Danio rerio [1] = species on record: Danio rerio; test: Toxicity in zebra fish larvae at 5 uM after 48 hrs; type: organism-based; details: zebrafish, in vivo
3T3-L1 [2] = test: Cytotoxicity against mouse 3T3L1 cells at 50 uM after 48 hrs by sulforhodamine B assay; type: cell-based; details: 3t3-l1, 48 h
Danio rerio [3] = species on record: Danio rerio; test: Lipid lowering activity in zebrafish embryos by Nile red fat metabolism assay; type: functional, organism-based
Danio rerio [4] = species on record: Danio rerio; test: Lipid lowering activity in zebrafish embryos at 5 uM by Nile red fat metabolism assay; type: functional, organism-based
3T3-L1 [5] = test: Cytotoxicity against mouse 3T3L1 cells at 50 uM after 24 hrs by sulforhodamine B assay; type: cell-based; details: 3t3-l1, 24 h
Danio rerio [6] = species on record: Danio rerio; test: Downregulation of fasn mRNA expression in zebra fish larvae at lipid lowering activity EC50 after 48 hrs by RT-PCR analysis; type: functional
Danio rerio [7] = species on record: Danio rerio; test: Toxicity in zebra fish larvae assessed as induction of malformation at 50 uM after 24 to 48 hrs; type: organism-based; details: zebrafish, in vivo
Danio rerio [8] = species on record: Danio rerio; test: Lipid lowering activity in zebrafish embryos 50 uM by Nile red fat metabolism assay; type: functional, organism-based

Row | Compound | Activity (Danio rerio [1]) [%] | Activity (3T3-L1 [2]) [%] | EC50 (Danio rerio [3]) [nM] | Activity (Danio rerio [4]) | Activity (3T3-L1 [5]) [%] | Activity (Danio rerio [6]) | Activity (Danio rerio [7]) | fold change (FC) (Danio rerio [6]) | Activity (Danio rerio [8])
1 | COc1ccc2c(=O)c3ccccc3oc2c1O | 0 to 25 | 0 to 25 | 480 | Active | 0 to 25 |  |  |  | 
2 | O=c1c2ccccc2oc2cc(O)c(O)cc12 | 0 to 25 | 0 to 25 | 980 | Active | 0 to 25 |  |  |  | 
3 | O=c1c2ccccc2oc2cccc(O)c12 | 0 to 25 | 0 to 25 | 620 | Active | 0 to 25 |  |  |  | 
4 | CC1(C)C=Cc2cc(O)c3c(=O)c4ccccc4oc3c2O1 | 0 to 25 | 0 to 25 | 290 | Active | 0 to 25 |  |  |  | 
5 | O=c1c2ccccc2oc2ccc(O)c(O)c12 | 0 to 25 | 0 to 25 | 130 | Active | 0 to 25 | inactive |  |  | 
6 | CC1(C)C=Cc2c(cc3c(=O)c4ccccc4oc3c2O)O1 | 0 to 25 | 0 to 25 | 560 | Active | 0 to 25 |  |  |  | 
7 | COc1c2c(cc3c(=O)c4cc(C)ccc4oc13)CCC(C)(C)O2 | 0 to 25 | 0 to 25 | 420 | Active | 0 to 50 |  |  |  | 
8 | COc1cc2oc3c(OC)c4c(cc3c(=O)c2cc1OC)CCC(C)(C)O4 | 0 to 25 | 0 to 25 | 540 | Active | 0 to 25 |  |  |  | 
9 | COc1cc2c(c3oc4ccccc4c(=O)c13)OC(C)(C)CC2 | 0 to 25 | 0 to 25 | 730 | Active | 0 to 25 |  |  |  | 
10 | COc1cccc2oc3ccccc3c(=O)c12 | 0 to 25 | 0 to 25 | 790 | Active | 0 to 25 |  |  |  | 
11 | COC(=O)COc1ccc2c(=O)c3ccc(OCC(=O)OC)cc3oc2c1 | 0 to 25 | 0 to 25 | 1670 | Active | 0 to 25 |  |  |  | 
12 | COc1ccc2c(=O)c3ccccc3oc2c1OC | 0 to 25 | 0 to 25 | 360 | Active | 0 to 25 |  |  |  | 
13 | O=c1c2cc(O)ccc2oc2cccc(O)c12 | 0 to 25 | 0 to 25 |  |  | 0 to 25 |  | Toxic |  | 
14 | O=c1c2ccccc2oc2ccc(O)cc12 | 0 to 25 | 0 to 25 | 760 | Active | 0 to 25 |  |  |  | 
15 | C=CCOc1ccc(/C=C/C(=O)/C=C/c2ccc(OCC=C)c(OC)c2)cc1OC | 0 to 25 | 0 to 25 |  | Active | 0 to 25 |  |  |  | 
16 | COc1cc2oc3ccccc3c(=O)c2cc1OC | 0 to 25 | 0 to 25 | 280 | Active | 0 to 25 |  |  | 2 | 
17 | COc1cc(C(Br)Br)c2c(=O)c3ccccc3oc2c1OC | 0 to 25 | 51 to 75 |  | Active | 26 to 50 |  |  |  | 
18 | COc1cc(C=O)c2c(=O)c3ccccc3oc2c1O | 0 to 25 | 51 to 75 |  | Active | 0 to 25 |  |  |  | 
19 | COc1ccc2oc3ccccc3c(=O)c2c1OC | 0 to 25 | 0 to 25 | 620 | Active | 0 to 25 |  |  |  | 
20 | Oc1ccc(/C=C/c2cc(O)cc(O)c2)cc1 [RESVERATROL] |  |  | 600 | Active |  |  |  |  | Active
21 | COc1c2c(cc3c(=O)c4cc(Cl)ccc4oc13)OC(C)(C)CC2 | 0 to 25 | 0 to 25 | 860 | Active | 0 to 25 |  |  |  | 
22 | CCCOc1ccc(NCC(C)C)c2c(=O)c3ccccc3sc12 | 0 to 25 | 0 to 25 | 70 | Active | 0 to 25 | inactive |  |  | 
23 | COc1cc(CO)c2c(=O)c3ccccc3oc2c1OC | 0 to 25 | 26 to 50 |  | Active | 0 to 25 |  |  |  | 
24 | COc1cccc2c(=O)c3ccccc3oc12 | 0 to 25 | 0 to 25 |  | Active | 26 to 50 |  |  |  | 
25 | CCN(CC)c1ccc2c(=O)c3cc4c(c(OC)c3oc2c1)CCC(C)(C)O4 | 76 to 100 | 51 to 75 |  | Active | 51 to 75 |  |  |  | 
26 | CC1(C)C=Cc2cc3c(=O)c4ccccc4oc3c(O)c2O1 | 0 to 25 | 0 to 25 | 1440 | Active | 0 to 25 |  |  |  | 
